Measurements taken from the supplement of paper PMC13207355.

Key:
Details in all cases: exposure time: 72 h
[1] = test system: E28 (patient-derived glioblastoma stem cells of classical subtype); assay: surviving fraction (nuclei count normalised to DMSO); higher = more cells surviving (less toxic)
[2] = test system: E57 (patient-derived glioblastoma stem cells of mesenchymal subtype); assay: as above
[3] = test system: E31 (patient-derived glioblastoma stem cells of proneural subtype); assay: as above
[4] = test system: E34 (patient-derived glioblastoma stem cells of proneural subtype); assay: as above
[5] = test system: E13 (patient-derived glioblastoma stem cells of classical subtype); assay: as above
[6] = test system: E21 (patient-derived glioblastoma stem cells of mesenchymal subtype); assay: as above
[7] = test system: FT3469 (normal neural stem cell line); assay: as above
[8] = test system: E28; assay: phenotypic distance (Euclidean, principal components) from DMSO controls (arbitrary units); higher = stronger morphological change
[9] = test system: E57; assay: as above
[10] = test system: E31; assay: as above
[11] = test system: E34; assay: as above
[12] = test system: E13; assay: as above
[13] = test system: E21; assay: as above
[14] = test system: FT3469; assay: as above
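Throughout, for phenotypic distance (Euclidean, principal components) from DMSO controls: cell Painting imaging in 384-well plates, CellProfiler features reduced to at least 20 principal components, Euclidean distance versus same-plate DMSO vehicle wells (0.1% v/v), median over six images per well.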
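Throughout, for surviving fraction (nuclei count normalised to DMSO): nuclei counted by high-content imaging of Hoechst-stained cells in laminin-coated 384-well plates, relative to 0.1% DMSO vehicle wells, with staurosporine as cell-death control.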

CCN1CCN(C(=O)Cc2ccc(Nc3ncc(F)c(Nc4ccc(C(=O)Nc5ccccc5Cl)cc4)n3)cc2)CC1 [Aurora-A Inhibitor I]
Details	phenotypic distance	surviving fraction
[1], 4.1 nM	–	0.826
[1], 12.3 nM	–	1.04
[1], 37 nM	–	0.98
[1], 111.1 nM	–	1.01
[1], 333.3 nM	–	0.732
[1], 1000 nM	–	0.295
[1], 3000 nM	–	0.265
[2], 4.1 nM	–	0.996
[2], 12.3 nM	–	0.998
[2], 37 nM	–	0.968
[2], 111.1 nM	–	1.03
[2], 333.3 nM	–	0.905
[2], 1000 nM	–	0.513
[2], 3000 nM	–	0.0372
[3], 4.1 nM	–	0.968
[3], 12.3 nM	–	0.879
[3], 37 nM	–	0.989
[3], 111.1 nM	–	0.819
[3], 333.3 nM	–	0.602
[3], 1000 nM	–	0.0846
[3], 3000 nM	–	0.0618
[4], 4.1 nM	–	0.935
[4], 12.3 nM	–	0.848
[4], 37 nM	–	0.988
[4], 111.1 nM	–	0.958
[4], 333.3 nM	–	0.736
[4], 1000 nM	–	0.635
[4], 3000 nM	–	0.198
[5], 4.1 nM	–	0.898
[5], 12.3 nM	–	0.858
[5], 37 nM	–	0.898
[5], 111.1 nM	–	0.786
[5], 333.3 nM	–	0.755
[5], 1000 nM	–	0.643
[5], 3000 nM	–	0.588
[6], 4.1 nM	–	0.962
[6], 12.3 nM	–	0.968
[6], 37 nM	–	0.937
[6], 111.1 nM	–	1.04
[6], 333.3 nM	–	0.873
[6], 1000 nM	–	0.369
[6], 3000 nM	–	0.0545
[7], 4.1 nM	–	1.01
[7], 12.3 nM	–	0.895
[7], 37 nM	–	0.866
[7], 111.1 nM	–	0.883
[7], 333.3 nM	–	1.04
[7], 1000 nM	–	0.483
[7], 3000 nM	–	0.394
[8], 4.1 nM	0.837	–
[8], 12.3 nM	1.2	–
[8], 37 nM	0.715	–
[8], 111.1 nM	0.655	–
[8], 333.3 nM	1.3	–
[8], 1000 nM	5.35	–
[8], 3000 nM	7.22	–
[9], 4.1 nM	0.556	–
[9], 12.3 nM	1.22	–
[9], 37 nM	0.495	–
[9], 111.1 nM	0.921	–
[9], 333.3 nM	1.17	–
[9], 1000 nM	3.49	–
[9], 3000 nM	11.6	–
[10], 4.1 nM	0.624	–
[10], 12.3 nM	0.904	–
[10], 37 nM	0.48	–
[10], 111.1 nM	0.975	–
[10], 333.3 nM	1.09	–
[10], 1000 nM	6.37	–
[10], 3000 nM	11.8	–
[11], 4.1 nM	0.739	–
[11], 12.3 nM	0.951	–
[11], 37 nM	0.479	–
[11], 111.1 nM	0.728	–
[11], 333.3 nM	0.971	–
[11], 1000 nM	1.96	–
[11], 3000 nM	9.28	–
[12], 4.1 nM	0.68	–
[12], 12.3 nM	0.752	–
[12], 37 nM	1.14	–
[12], 111.1 nM	1.23	–
[12], 333.3 nM	1.57	–
[12], 1000 nM	2.01	–
[12], 3000 nM	2.52	–
[13], 4.1 nM	0.463	–
[13], 12.3 nM	0.798	–
[13], 37 nM	0.695	–
[13], 111.1 nM	0.686	–
[13], 333.3 nM	0.809	–
[13], 1000 nM	3.84	–
[13], 3000 nM	8.57	–
[14], 4.1 nM	0.518	–
[14], 12.3 nM	0.954	–
[14], 37 nM	0.712	–
[14], 111.1 nM	0.933	–
[14], 333.3 nM	0.835	–
[14], 1000 nM	1.89	–
[14], 3000 nM	13.2	–

COc1ccc(C(=O)CC(=O)c2ccc(C(C)(C)C)cc2)cc1 [Avobenzone]
Details	phenotypic distance	surviving fraction
[1], 4.1 nM	–	1.14
[1], 12.3 nM	–	1.14
[1], 37 nM	–	1.14
[1], 111.1 nM	–	0.988
[1], 333.3 nM	–	1.06
[1], 1000 nM	–	1.12
[1], 3000 nM	–	0.739
[2], 4.1 nM	–	1.04
[2], 12.3 nM	–	1.07
[2], 37 nM	–	1.02
[2], 111.1 nM	–	0.975
[2], 333.3 nM	–	1.12
[2], 1000 nM	–	1.03
[2], 3000 nM	–	0.96
[3], 4.1 nM	–	0.989
[3], 12.3 nM	–	1.02
[3], 37 nM	–	1.02
[3], 111.1 nM	–	0.921
[3], 333.3 nM	–	0.973
[3], 1000 nM	–	1.06
[3], 3000 nM	–	0.941
[4], 4.1 nM	–	1.08
[4], 12.3 nM	–	0.923
[4], 37 nM	–	0.995
[4], 111.1 nM	–	1.06
[4], 333.3 nM	–	1.04
[4], 1000 nM	–	1.03
[4], 3000 nM	–	0.818
[5], 4.1 nM	–	0.902
[5], 12.3 nM	–	1.02
[5], 37 nM	–	1.08
[5], 111.1 nM	–	0.948
[5], 333.3 nM	–	1.11
[5], 1000 nM	–	1.07
[5], 3000 nM	–	0.8
[6], 4.1 nM	–	1.1
[6], 12.3 nM	–	1.17
[6], 37 nM	–	1.05
[6], 111.1 nM	–	1.13
[6], 333.3 nM	–	1.13
[6], 1000 nM	–	1.07
[6], 3000 nM	–	0.82
[7], 4.1 nM	–	1.08
[7], 12.3 nM	–	1.38
[7], 37 nM	–	1
[7], 111.1 nM	–	1.2
[7], 333.3 nM	–	0.863
[7], 1000 nM	–	1.25
[7], 3000 nM	–	0.973
[8], 4.1 nM	1.01	–
[8], 12.3 nM	0.675	–
[8], 37 nM	0.613	–
[8], 111.1 nM	0.631	–
[8], 333.3 nM	0.646	–
[8], 1000 nM	0.601	–
[8], 3000 nM	0.879	–
[9], 4.1 nM	0.899	–
[9], 12.3 nM	1.11	–
[9], 37 nM	0.644	–
[9], 111.1 nM	0.447	–
[9], 333.3 nM	1.15	–
[9], 1000 nM	0.55	–
[9], 3000 nM	1.16	–
[10], 4.1 nM	0.665	–
[10], 12.3 nM	0.919	–
[10], 37 nM	0.653	–
[10], 111.1 nM	0.43	–
[10], 333.3 nM	0.486	–
[10], 1000 nM	0.737	–
[10], 3000 nM	0.899	–
[11], 4.1 nM	0.805	–
[11], 12.3 nM	0.881	–
[11], 37 nM	0.524	–
[11], 111.1 nM	0.804	–
[11], 333.3 nM	0.741	–
[11], 1000 nM	0.759	–
[11], 3000 nM	1.45	–
[12], 4.1 nM	1.11	–
[12], 12.3 nM	0.579	–
[12], 37 nM	0.386	–
[12], 111.1 nM	0.499	–
[12], 333.3 nM	0.627	–
[12], 1000 nM	0.606	–
[12], 3000 nM	0.743	–
[13], 4.1 nM	0.845	–
[13], 12.3 nM	0.782	–
[13], 37 nM	0.67	–
[13], 111.1 nM	0.818	–
[13], 333.3 nM	0.929	–
[13], 1000 nM	0.701	–
[13], 3000 nM	1.59	–
[14], 4.1 nM	0.579	–
[14], 12.3 nM	0.768	–
[14], 37 nM	0.688	–
[14], 111.1 nM	0.824	–
[14], 333.3 nM	0.788	–
[14], 1000 nM	2.5	–
[14], 3000 nM	0.402	–
